In ChEMBL document CHEMBL1201862, “PubChem BioAssay data set” (2004):
The source made the active and inactive calls.

How the values were obtained:
Bcl-2-related protein A1 [1] = target: T1, Bcl-2-related protein A1 (Mus musculus, UniProt Q07440); assay: small-molecule antagonists of Bfl-1/BH3 interaction – biochemical, TR-FRET, mouse Bfl-1, confirmation (AID 621);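 also: TR-FRET binding of GST-Bfl-1 to FITC-labelled Bid peptide via terbium antibody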
T1 sequence (Q07440 whole entry): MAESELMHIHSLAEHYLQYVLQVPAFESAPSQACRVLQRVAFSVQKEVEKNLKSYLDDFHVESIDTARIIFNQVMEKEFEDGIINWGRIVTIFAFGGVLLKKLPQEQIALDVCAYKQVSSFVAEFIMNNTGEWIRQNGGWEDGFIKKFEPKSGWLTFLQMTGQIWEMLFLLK

Bcl-2-related protein A1 [2] = target: T1, Bcl-2-related protein A1; assay: Bfl-1 binding inhibitors, SAR follow-up, biochemical, fluorescence polarization (AID 1070)
NADPH oxidase 1 [3] = target: T2, NADPH oxidase 1 (Homo sapiens, UniProt Q9Y5S8); assay: Late-stage luminescence-based cell-based dose response assay to identify inhibitors of NADPH oxidase 1 (NOX1): Synthesized analogs.; type: functional
T2 sequence (Q9Y5S8 whole entry): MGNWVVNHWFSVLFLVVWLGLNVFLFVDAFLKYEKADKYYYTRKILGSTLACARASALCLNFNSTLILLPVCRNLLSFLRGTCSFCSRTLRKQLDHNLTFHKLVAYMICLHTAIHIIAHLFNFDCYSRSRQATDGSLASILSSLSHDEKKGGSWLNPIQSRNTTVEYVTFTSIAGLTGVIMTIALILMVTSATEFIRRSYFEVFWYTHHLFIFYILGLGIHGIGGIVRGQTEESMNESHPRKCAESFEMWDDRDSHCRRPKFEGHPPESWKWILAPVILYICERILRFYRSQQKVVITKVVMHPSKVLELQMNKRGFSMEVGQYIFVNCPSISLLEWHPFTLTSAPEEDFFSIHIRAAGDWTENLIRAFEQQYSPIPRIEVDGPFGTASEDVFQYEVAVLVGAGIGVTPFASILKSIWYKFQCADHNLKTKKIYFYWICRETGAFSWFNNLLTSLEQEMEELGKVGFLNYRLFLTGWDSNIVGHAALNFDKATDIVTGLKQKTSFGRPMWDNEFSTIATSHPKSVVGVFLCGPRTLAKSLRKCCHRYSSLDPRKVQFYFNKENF

NADPH oxidase 1 [4] = target: T2, NADPH oxidase 1; assay: Luminescence-based cell-based dose response assay to identify inhibitors of NADPH oxidase 1 (NOX1).; type: functional
[5] = target: T3, Small ubiquitin-related modifier 2 (Homo sapiens, UniProt P61956); assay: disruption of SUMO2 interaction with SIM peptide – biochemical, fluorescence polarization, uHTS hits, selectivity assay for SUMO1 interaction inhibitor project, dose response (AID 624385); type: functional; details: read-out: IC50_Mean
[6] = target: T4, Small ubiquitin-related modifier 1 (Homo sapiens, UniProt P63165); assay: SUMO1 protein interaction blockers, potency – biochemical, fluorescence polarization, uHTS hits, dose response (AID 624382); type: functional; details: read-out: IC50_Mean
[7] = target: Acetyl-CoA acetyltransferase/HMG-CoA reductase (Enterococcus faecalis, UniProt Q9FD70); assay: class II HMG-CoA reductase inhibition potency – biochemical, Enterococcus faecalis, confirmation (AID 1233); type: functional
[8] = target: Eukaryotic translation initiation factor 4E (Mus musculus, UniProt P63073); assay: blockers of eIF4G binding by eIF4E – biochemical, TR-FRET, dose response (AID 855); type: functional;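 also: potency for disrupting eIF4E binding to eIF4GI seen as loss of FRET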
[9] = target: T4, Small ubiquitin-related modifier 1; assay: SUMO1 protein-protein binding blockers, potency – biochemical, FRET, dose response (AID 624383); type: functional; details: read-out: IC50_Mean
[10] = target: T3, Small ubiquitin-related modifier 2; assay: SUMO2 binding disruption by SUMO1 hits – biochemical, FRET, human SUMO2, uHTS hits, selectivity assay for SUMO1 interaction inhibitor project, dose response (AID 624384); type: functional; details: read-out: IC50_Mean
[11] = target: Induced myeloid leukemia cell differentiation protein Mcl-1 (Homo sapiens, UniProt Q07820); assay: blockers of MCL1 binding to BIM peptide – biochemical, fluorescence polarization, BIM-BH3 peptide, 1536-well, dose response (AID 2217)
Bcl-2-like protein 1 = Bcl-2-like protein 1 (Homo sapiens, UniProt Q07817); assay: blockers of BCLXL peptide binding – biochemical, fluorescence polarization, 1536-well, selectivity assay for MCL1 inhibitor project, dose response (AID 2218)
Procathepsin L = Procathepsin L (Homo sapiens, UniProt P07711); assay: CTSL1 protease inhibition – biochemical, QFRET, 1536-well, counter-screen for M1/M17 aminopeptidase inhibitor project, dose response (AID 2214)
Leucine aminopeptidase = target: T5, Leucine aminopeptidase (Plasmodium falciparum 3D7, UniProt Q8IL11); assay: P. falciparum M17LAP inhibitors, primary screen, biochemical, fluorogenic H-Leu-NHMec substrate, 1536-well (AID 1619); type: functional
T5 sequence (Q8IL11 whole entry): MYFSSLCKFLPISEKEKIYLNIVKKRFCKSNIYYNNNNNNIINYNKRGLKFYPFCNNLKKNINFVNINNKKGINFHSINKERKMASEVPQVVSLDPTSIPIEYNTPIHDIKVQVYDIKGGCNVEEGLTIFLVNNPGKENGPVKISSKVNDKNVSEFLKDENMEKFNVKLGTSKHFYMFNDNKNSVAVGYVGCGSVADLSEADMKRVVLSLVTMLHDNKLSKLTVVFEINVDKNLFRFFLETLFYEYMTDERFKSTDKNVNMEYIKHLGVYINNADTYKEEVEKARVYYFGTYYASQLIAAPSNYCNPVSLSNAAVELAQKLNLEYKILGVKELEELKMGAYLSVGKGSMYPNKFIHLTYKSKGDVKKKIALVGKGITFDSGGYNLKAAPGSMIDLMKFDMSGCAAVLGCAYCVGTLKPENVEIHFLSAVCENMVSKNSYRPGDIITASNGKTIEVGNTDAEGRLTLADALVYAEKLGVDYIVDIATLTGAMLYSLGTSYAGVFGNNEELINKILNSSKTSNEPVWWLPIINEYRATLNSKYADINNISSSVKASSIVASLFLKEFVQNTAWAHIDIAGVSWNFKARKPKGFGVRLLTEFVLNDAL

Aspartyl aminopeptidase = Aspartyl aminopeptidase (Plasmodium falciparum 3D7, UniProt Q8I2J3); assay: Counterscreen for inhibitors of M1 and M17 aminopeptidases: QFRET-based biochemical high throughput dose response assay for inhibitors of the Plasmodium falciparum M18 Aspartyl Aminopeptidase (PFM18AAP). [Related PubChem assays: 1619 (Screening assay (M17LAP inhibitors).), 1445 (Screening assay (M1AAP inhibitors).)]
Vero = assay: mammalian cell viability reduction – secondary assay, cytotoxicity control for West Nile virus antiviral project, dose response (AID 1650); type: functional; details: Chlorocebus sabaeus
[12] = fluconazole-exposed Candida albicans growth modulators – fluorescence, retest, confirmation (AID 2467); type: functional, cell-based
[13] = NIH-3T3 fibroblast cytotoxicity, dose response, cytotoxicity control, cell-based, fluorescence, Alamar Blue, secondary assay (AID 2327); type: functional;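 also: NIH-3T3 mouse fibroblasts cultured with fluconazole at 8 µg/mL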

T4 sequence (P63165 whole entry): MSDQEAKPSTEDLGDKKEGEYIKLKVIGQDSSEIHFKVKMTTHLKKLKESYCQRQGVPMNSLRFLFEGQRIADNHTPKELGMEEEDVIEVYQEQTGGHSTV
T3 sequence (P61956 whole entry): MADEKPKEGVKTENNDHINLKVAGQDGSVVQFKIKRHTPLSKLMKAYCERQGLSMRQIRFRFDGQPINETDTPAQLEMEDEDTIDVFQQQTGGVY
Bcl-2-like protein 1, sequence (Q07817 whole entry): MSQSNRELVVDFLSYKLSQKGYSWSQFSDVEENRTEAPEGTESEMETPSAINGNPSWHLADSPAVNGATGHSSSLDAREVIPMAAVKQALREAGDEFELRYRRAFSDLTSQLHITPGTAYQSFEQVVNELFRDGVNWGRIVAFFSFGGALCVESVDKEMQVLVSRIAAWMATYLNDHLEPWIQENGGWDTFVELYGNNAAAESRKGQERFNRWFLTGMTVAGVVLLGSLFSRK
Eukaryotic translation initiation factor 4E, sequence (P63073 whole entry): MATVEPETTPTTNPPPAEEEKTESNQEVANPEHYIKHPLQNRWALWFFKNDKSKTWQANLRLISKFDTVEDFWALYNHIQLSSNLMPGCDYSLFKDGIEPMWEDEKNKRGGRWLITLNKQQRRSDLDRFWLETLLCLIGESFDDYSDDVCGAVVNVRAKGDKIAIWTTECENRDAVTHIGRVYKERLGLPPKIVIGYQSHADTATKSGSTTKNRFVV
Induced myeloid leukemia cell differentiation protein Mcl-1, sequence (Q07820 whole entry): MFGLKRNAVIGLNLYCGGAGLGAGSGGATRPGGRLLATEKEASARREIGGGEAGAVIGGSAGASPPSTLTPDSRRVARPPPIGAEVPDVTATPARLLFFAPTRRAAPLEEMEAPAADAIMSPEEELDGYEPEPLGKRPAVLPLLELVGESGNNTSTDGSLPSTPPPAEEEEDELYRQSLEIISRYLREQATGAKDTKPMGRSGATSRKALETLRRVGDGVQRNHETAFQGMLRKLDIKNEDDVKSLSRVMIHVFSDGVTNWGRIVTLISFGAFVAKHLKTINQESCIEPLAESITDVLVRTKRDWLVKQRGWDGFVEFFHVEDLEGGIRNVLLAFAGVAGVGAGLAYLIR
Aspartyl aminopeptidase, sequence (Q8I2J3 whole entry): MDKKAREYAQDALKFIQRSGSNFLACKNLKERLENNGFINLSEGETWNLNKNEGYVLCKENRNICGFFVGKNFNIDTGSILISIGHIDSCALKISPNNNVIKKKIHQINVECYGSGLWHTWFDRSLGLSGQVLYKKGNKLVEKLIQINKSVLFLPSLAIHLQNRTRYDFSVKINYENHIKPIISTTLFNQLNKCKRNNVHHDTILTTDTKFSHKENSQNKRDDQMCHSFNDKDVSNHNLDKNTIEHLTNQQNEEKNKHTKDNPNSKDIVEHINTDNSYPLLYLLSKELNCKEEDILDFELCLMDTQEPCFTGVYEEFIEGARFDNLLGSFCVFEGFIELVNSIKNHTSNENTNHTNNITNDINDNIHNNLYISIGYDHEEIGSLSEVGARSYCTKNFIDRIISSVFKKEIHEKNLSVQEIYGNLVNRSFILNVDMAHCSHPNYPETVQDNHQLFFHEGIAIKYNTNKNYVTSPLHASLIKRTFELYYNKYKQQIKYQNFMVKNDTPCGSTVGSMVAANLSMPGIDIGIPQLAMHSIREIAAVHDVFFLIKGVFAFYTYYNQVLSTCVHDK
Procathepsin L, sequence (P07711 whole entry): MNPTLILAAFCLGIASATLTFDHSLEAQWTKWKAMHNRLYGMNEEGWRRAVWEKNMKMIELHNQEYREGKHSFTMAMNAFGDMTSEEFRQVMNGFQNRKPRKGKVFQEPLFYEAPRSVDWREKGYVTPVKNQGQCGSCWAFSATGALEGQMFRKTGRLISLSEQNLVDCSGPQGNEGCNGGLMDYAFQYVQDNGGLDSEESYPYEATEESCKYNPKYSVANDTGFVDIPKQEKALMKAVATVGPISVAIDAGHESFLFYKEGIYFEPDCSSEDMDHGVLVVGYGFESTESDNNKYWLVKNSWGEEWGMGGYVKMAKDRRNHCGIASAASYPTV

C[C@H]1CN(C2=C(Cl)C(=O)N(c3ccc(Cl)c(Cl)c3)C2=O)CCN1
IC50 (Bcl-2-related protein A1 [1]): 1.25 µM (active)
IC50 (Bcl-2-related protein A1 [2]): 1.32 µM (active)

COc1ccc2c(c1)S(=O)(=O)c1ccccc1N2
IC50 (NADPH oxidase 1 [3]): > 50 µM (not active)
IC50 (NADPH oxidase 1 [4]): > 20 µM (not active)

O=C(CSc1nc(-c2ccccc2)nc2c1Cc1ccccc1O2)Nc1ccc(C(=O)O)cc1
IC50 [5]: 35.1 µM (inactive)
IC50 [6]: 23.1 µM (inactive)
IC50 [7]: 164 µM (active)
IC50 [8]: 17.1 µM (active)
IC50 [9]: 5.3 µM (active)
IC50 [10]: 6.38 µM (active)

Cc1ccc(-c2csc3ncn(CC#N)c(=O)c23)cc1C
IC50 [11]: > 109 µM (not active)
IC50 (Bcl-2-like protein 1): > 109 µM (not active)

O=C(O)C1CC=CCC1C(=O)Nc1cccc(Cl)c1 (stereo not drawn)
IC50 (Procathepsin L): > 59.6 µM (not active)
IC50 (Leucine aminopeptidase): 6.23 µM (active)
IC50 (Aspartyl aminopeptidase): > 73.5 µM (not active)

Nc1nsc2ccccc12
CC50 (Vero): 41.7 µM (active)
EC50 [12]: 3.19 µM (active)
EC50 [13]: 24.5 µM (inconclusive)
